In patent US12320799B2, “Methods of measuring signaling pathway activity for selection of therapeutic agents” (Celcuity Inc., priority 2017, dated 2025):

Legend:
Format in all cases: cell-based, human
[1] = test system: Axl signaling pathway; assay: CELx multiple pathway test, impedance biosensor cell adhesion, Gas6/R428 (BGB324) pair; settings: activator Gas6
Excerpt: (§1) Biosensor and transducer: A 96-well impendence E-Plate (ACEA, San Diego, CA) was placed onto an xCELLigence RTCA MP Station impendence biosensor (ACEA, San Diego, CA). The biosensor measured simultaneously the impedance of every well. The change in impedance for a particular well is proportional to the number of cells and type of attachment the cells have with the impedance microplate. Changes in impedance indicate a response to perturbation of these small cell populations. Coatings: The 96-E-Plate were wells were coated with fibronectin and or collagen. Collagen is purchased from Advanced BioMatrix (Carlsbad, CA) and fibronectin from Sigma-Aldrich (St. Louis, MO). Tissue and cell samples: A total of 18 samples of human tumor cells from breast, lung, colon, ovarian, kidney, bladder cancer were studied. For each of these six different cancer types, tumor cell samples from three different patients were tested. Any biomarkers that are used to guide selection of targeted therapy are listed in Table 18 for each patient if they were present. Signaling Pathways activator agent and targeted therapeutic pairs: Eleven different signaling pathways were studied in each human tumor cell sample using […] signaling pathway activator agent and targeted therapeutic pairs. Each of the signaling pathway activator agent and targeted therapeutic pairs affect the same signaling pathway. Each of the signaling pathway activator agents is a well-characterized and specific agonist of its associated signaling pathway and each of the targeted therapeutic agents is a well-characterized and specific antagonist of the same associated signaling pathway. The signaling pathway activator agents and targeted therapeutics used to characterize the activity level of the associated signaling pathway are summarized in Table 16 below:
(§2) Other Reagents: Standard media antibiotics (e.g. penicillin, streptomycin) and other buffers were purchased and used as delivered from ATCC (Manassas, VA, USA) or Life Technologies (Grand Island, NY). Procedure: For each test of a patient cell sample with a pair of signaling pathway activator and targeted therapeutic agents, six wells were seeded with approximately 15,000 cells in 120 uL culture media. Twenty microliters of the targeted therapeutic agent were added to two wells of each patient's cells and 20 microliters of standard media were added to the other four wells for each patient 18 hours in advance of addition of the signaling pathway activator agent. Signaling pathway stimulation was initiated with the addition of 20 ul of the signaling pathway activator agent in the two wells that received a targeted therapeutic agent and in two additional wells for each patient's set of cells without the targeted therapeutic. The impedance recording of attachment and adhesion change was performed at 37° C., 5% C02. Data was recorded on a continuous basis throughout the test, where the data presented is from the initial baseline level of cell attachment compared to the subsequent effects following the targeted therapeutic agent and the signaling pathway activator agent additions on the 18 different patient samples.
(§3) For each of the 18 patient samples, up to 11 different signaling pathways were tested. The output value represents the difference between the amount of cell adhesion change resulting from addition of the signaling pathway activator agent and the amount of cell adhesion change resulting from addition of the targeted therapeutic agent.

[2] = test system: HER1, HER3 and c-Met pathways; assay: CELx test of multiple pathways simultaneously (EGF, NRG1, HGF in combination), impedance biosensor
Excerpt: Biosensor and transducer: A 96-well impendence E-Plate (ACEA, San Diego, CA) was placed onto an xCELLigence RTCA MP Station impendence biosensor (ACEA, San Diego, CA). The biosensor measured simultaneously the impedance of every well. The change in impedance for a particular well is proportional to the number of cells and type of attachment the cells have with the impedance microplate. Changes in impedance indicate a response to perturbation of these small cell populations. Coatings: The 96-E-Plate were wells were coated with fibronectin and or collagen. Collagen is purchased from Advanced BioMatrix (Carlsbad, CA) and fibronectin from Sigma-Aldrich (St. Louis, MO). Tissue and cell samples: Six samples of human tumor cells from breast cancer were studied (C1815, C1596, C1838, C135, C42, C264). Any biomarkers that are used to guide selection of targeted therapy are listed in Table 22 for each patient if they were present. Signaling Pathways activator agent and targeted therapeutic pairs: In each human tumor cell sample, gross signaling activity of the HER1, HER3 and c-Met pathways initiated by three activator agents (EGF, NRG1, HGF) in combination was quantified. […] Each of the signaling pathway activator agents is a well-characterized and specific agonist of its associated signaling pathway. […] The fifth targeted therapeutic tested, taselisib, is an inhibitor that binds to PI3k, which downstream of the HER family and c-Met receptors. Other Reagents: Standard media, antibiotics (e.g. penicillin, streptomycin), and other buffers were purchased and used as delivered from ATCC (Manassas, VA, USA) or Life Technologies (Grand Island, NY). Procedure:
For each test of a patient cell sample with a signaling pathway activator(s) and targeted therapeutic agent(s), six or eight wells were seeded with approximately 15,000 cells in 120 uL culture media; six wells were seeded when only a single drug was evaluated and eight wells were seeded when two drugs were evaluated. When only a single drug was evaluated, 20 uL of the targeted therapeutic agent was added to two wells of each patient's cells and the final concentration of the therapeutic agent in the two wells with the single therapeutic agent was 500 nanomolar. When two therapeutic agents were evaluated, two wells of patient cells received 20 uL of the combined therapeutic agents at a concentration of 500 nanomolar each and an additional two wells of patient cells received 20 uL of the combined therapeutic agents at a concentration of 50 nanomolar each. Twenty microliters of standard media were added to the other four wells for each patient 18 hours in advance of addition of the signaling pathway activator agent(s). Signaling pathway stimulation was initiated with the addition of 20 ul of the signaling pathway activator agent(s) in the two or four wells that received a targeted therapeutic agent(s) and two additional wells for each patient's set of cells. The impedance recording of attachment and adhesion change was performed at 37° C., 5% CO2. Data was recorded on a continuous basis throughout the test, where the data presented if from the initial baseline level of cell attachment compared to the subsequent effects following the targeted therapeutic agent(s) and the signaling pathway activator agent(s) additions on the nine different patient samples.
as §3, with “six” for “18”, “three” for “up to 11”, “pathways (HER1, HER3, c-Met)” for “pathways”, “activated simultaneously.” for “tested.”, “agent(s)” for “agent”, “agent(s).” for “agent.”

[3] = test system: ALK signaling pathway; assay: CELx multiple pathway test, impedance biosensor cell adhesion, FAM150A/Ceritinib pair; settings: activator FAM150A
Excerpt: as §1, §2, §3

[4] = test system: HER2/HER1 signaling pathway; assay: CELx multiple pathway test, impedance biosensor cell adhesion, EGF/Pertuzumab pair; settings: activator EGF
Excerpt: as §1
as §2, with “samples. Results:” for “samples.”
as §3, with “Table 17 presents the results, expressed as an output value, for each of the 167 tests performed using the methods described above. For” for “For”

[5] = test system: HER2/HER3 signaling pathway; assay: CELx multiple pathway test, impedance biosensor cell adhesion, NRG1/Pertuzumab pair; settings: activator NRG1
Excerpt: as §1, §2, §3

[6] = test system: HER2 signaling pathway; assay: CELx multiple pathway test, impedance biosensor cell adhesion, Pertuzumab; settings: no activator listed
Excerpt: as §1
as §2, with “samples. Results:” for “samples.”
as §3, with “Table 17 presents the results, expressed as an output value, for each of the 167 tests performed using the methods described above. For” for “For”

## Nc1nc(Nc2ccc3c(c2)CC[C@@H](N2CCCC2)CC3)nn1-c1cc2c(nn1)-c1ccccc1CCC2 [R428 (BGB324)]
[1]; C2 breast tumor cells
  output value: 5
[1]; C21 breast tumor cells
  output value: 6
[1]; C23 lung tumor cells
  output value: 24
[1]; C24 lung tumor cells
  output value: 7
[1]; C25 lung tumor cells
  output value: 30
[1]; C34 breast tumor cells
  output value: 44
[1]; C54 ovarian tumor cells
  output value: 12
[1]; C69 ovarian tumor cells
  output value: 10
[1]; C77 ovarian tumor cells
  output value: 5

## Cc1nc(-c2cn3c(n2)-c2ccc(-c4cnn(C(C)(C)C(N)=O)c4)cc2OCC3)n(C(C)C)n1 [taselisib]
[2]; breast cancer patient sample C42, agent(s) 500 nM each
  Output value (cell adhesion change, activator agents minus targeted therapeutic agent(s)): 246
[2]; breast cancer patient sample C135, agent(s) 500 nM each
  Output value (cell adhesion change, activator agents minus targeted therapeutic agent(s)): 583
[2]; breast cancer patient sample C264, agent(s) 500 nM each
  Output value (cell adhesion change, activator agents minus targeted therapeutic agent(s)): 276
[2]; breast cancer patient sample C1596, agent(s) 500 nM each
  Output value (cell adhesion change, activator agents minus targeted therapeutic agent(s)): 242
[2]; breast cancer patient sample C1815, agent(s) 500 nM each
  Output value (cell adhesion change, activator agents minus targeted therapeutic agent(s)): 385
[2]; breast cancer patient sample C1838, agent(s) 500 nM each
  Output value (cell adhesion change, activator agents minus targeted therapeutic agent(s)): 271

## Cc1cc(Nc2ncc(Cl)c(Nc3ccccc3S(=O)(=O)C(C)C)n2)c(OC(C)C)cc1C1CCNCC1 [Ceritinib]
[3]; C2 breast tumor cells
  output value: 5
[3]; C21 breast tumor cells
  output value: 10
[3]; C23 lung tumor cells
  output value: 16
[3]; C24 lung tumor cells
  output value: 2
[3]; C25 lung tumor cells
  output value: 8
[3]; C34 breast tumor cells
  output value: 15
[3]; C54 ovarian tumor cells
  output value: 14
[3]; C69 ovarian tumor cells
  output value: 16
[3]; C77 ovarian tumor cells
  output value: 37

## Pertuzumab
[4]; C2 breast tumor cells
  output value: 28
[4]; C21 breast tumor cells
  output value: 40
[4]; C23 lung tumor cells
  output value: −6
[4]; C24 lung tumor cells
  output value: 54
[4]; C25 lung tumor cells
  output value: 38
[4]; C34 breast tumor cells
  output value: −176
[4]; C54 ovarian tumor cells
  output value: 180
[4]; C62 colorectal tumor cells
  output value: 0
[4]; C69 ovarian tumor cells
  output value: −115
[4]; C71 colorectal tumor cells
  output value: −10
[4]; C72 colorectal tumor cells
  output value: 0
[4]; C77 ovarian tumor cells
  output value: 67
[4]; C81 bladder tumor cells
  output value: 1
[4]; C82 bladder tumor cells
  output value: 1
[4]; C87 bladder tumor cells
  output value: 46
[4]; C88 kidney tumor cells
  output value: −24
[4]; C90 kidney tumor cells
  output value: 35
[4]; C92 kidney tumor cells
  output value: 3
[5]; C2 breast tumor cells
  output value: 426
[5]; C21 breast tumor cells
  output value: −48
[5]; C23 lung tumor cells
  output value: 61
[5]; C24 lung tumor cells
  output value: 13
[5]; C25 lung tumor cells
  output value: 9
[5]; C54 ovarian tumor cells
  output value: 356
[5]; C62 colorectal tumor cells
  output value: 24
[5]; C71 colorectal tumor cells
  output value: 175
[5]; C72 colorectal tumor cells
  output value: 21
[5]; C77 ovarian tumor cells
  output value: 294
[5]; C81 bladder tumor cells
  output value: 4
[5]; C82 bladder tumor cells
  output value: 5
[5]; C87 bladder tumor cells
  output value: 477
[5]; C88 kidney tumor cells
  output value: 46
[5]; C90 kidney tumor cells
  output value: −3
[5]; C92 kidney tumor cells
  output value: −20
[6]; C2 breast tumor cells
  output value: 454
[6]; C21 breast tumor cells
  output value: −9
[6]; C23 lung tumor cells
  output value: −55
[6]; C24 lung tumor cells
  output value: 66
[6]; C25 lung tumor cells
  output value: 47
[6]; C34 breast tumor cells
  output value: −90
[6]; C54 ovarian tumor cells
  output value: 537
[6]; C62 colorectal tumor cells
  output value: 24
[6]; C69 ovarian tumor cells
  output value: −20
[6]; C71 colorectal tumor cells
  output value: 165
[6]; C72 colorectal tumor cells
  output value: 21
[6]; C77 ovarian tumor cells
  output value: 361
[6]; C81 bladder tumor cells
  output value: 5
[6]; C82 bladder tumor cells
  output value: 6
[6]; C87 bladder tumor cells
  output value: 523
[6]; C88 kidney tumor cells
  output value: 16
[6]; C90 kidney tumor cells
  output value: 32
[6]; C92 kidney tumor cells
  output value: 23
